# Measured values published in patent US9656953B2, “Inhibition of cell proliferation” (University of South Florida, priority 2005, dated 2017).
# “Also recorded” adds a separate entry of the source.
# What was measured:
# [1] = test system: A549 cells stably expressing sh8; experiment: BrdU incorporation, A549 Rb shRNA sh8; format: cell-based, human; settings: 20 μM, Rb knock down
# Method: (§1) Proliferation assays. Bromodeoxyuridine (BrdU) labeling kits were obtained from Roche Biochemicals (Indianapolis, Ind.). Cells were plated in poly-D-lysine coated chamber slides at a density of 10,000 cells per well and rendered quiescent by serum starvation for 24 hours. Cells were then re-stimulated with serum in the presence or absence of the indicated drugs for 18 h. S-phase cells were visualized by microscopy and quantitated by counting 3 fields of 100 in quadruplicate.
# (§2) To further confirm that 3a requires a functional Rb to inhibit tumor cell proliferation, A549 cells (human epithelial lung carcinoma) were stably transfected with two different shRNA constructs (sh6 and sh8) to knock down Rb expression.
# H1650 tumors = experiment: H1650 xenograft in nude mice; format: in vivo
# Saos-2 cells = experiment: BrdU incorporation, S-phase entry, Saos-2; format: cell-based; settings: 20 μM, 18 hours, Rb null
# Method: as §1
# (§3) Given the selectivity of 3a described in FIGS. 1 and 2 above for disrupting the Rb:Raf-1 interaction, it was examined if 3a can inhibit the proliferation of cells and whether such an inhibition required a functional Rb gene.
# U2-OS cells = experiment: BrdU incorporation, S-phase entry, U2-OS; format: cell-based; settings: 20 μM, 18 hours, Rb wild type
# Method: as §1, §3
# A549 cells = experiment: BrdU incorporation, S-phase entry, A549; format: cell-based, human; settings: 20 μM
# Method: as §1, §2
# [2] = test system: U251MG glioblastoma cell line; experiment: BrdU incorporation, S-phase entry, U251MG; format: cell-based; settings: null for p16 and PTEN
# Method: as §1
# [3] = test system: A549 cells infected with Ad-E2F1; experiment: BrdU incorporation, A549 infected with Ad-E2F1; format: cell-based, human; settings: 20 μM of 3a for 36 h
# Method: as §1
# To this end, A549 cells were infected with Ad-E2F1 or Ad-cyclin D, in the presence of 20 μM of 3a for 36 h. Ad-GFP infected cells were used as a control.
# cyclin E kinase activity = experiment: In vitro kinase assay, cyclin E; format: biochemical
# Method: (§4) In vitro kinase assay. The kinase reaction for Raf-1 was carried out with 100 nanograms (ng) of Raf-1 (Upstate Signaling, Charlottesville, Va.), 0.5 μg of full-length Rb protein (QED Bioscience, San Diego, Calif.) as the substrate, 10 μM ATP, 10 μCi of [γ-^32P] ATP in the kinase assay buffer in the presence or absence of the drugs at 30° C. for 30 minutes. Cyclin D and E kinase assays are described in (Dasgupta 2004).
# [4] = test system: Rb phosphorylation (serines 807 and 811); experiment: Western blot of Rb phosphorylation, A549 cells; format: cell-based, human; settings: cells treated 18 hours, western blotting
# From the text: (§5) Lysate preparation, pmmunoprecipitation, and pestern plotting.
# H1650 cells = experiment: Soft agar assay, H1650; format: cell-based
# Method: (§6) Soft Agar Assay. Soft agar assays were done in triplicate in 12-well plates (Corning, Corning N.Y.). First, the bottom layer of agar (0.6%) was allowed to solidify at room temperature. Next the top layer of agar was (0.3%) was mixed with 5,000 cells per well and the indicated drug. The drugs were added twice weekly in complete media to the agar wells. Colonies were quantified by staining with MTT (3-(4,5-Dimethylthiazol-2-yl)-2,5-diphenyltetrazolium bromide) 1 mg/mL for 1 hour at 37° C.
# (§7) Experiments were also carried out to examine the effect of 3a in inhibiting the adherence-independent growth of cancer cells in soft agar.
# [5] = test system: A549 cells stably expressing sh6; experiment: BrdU incorporation, A549 Rb shRNA sh6; format: cell-based, human; settings: 20 μM, Rb knock down
# Method: as §1, §2
# [6] = target: T1, Rb:Raf-1 interaction in tumor xenografts (Homo sapiens, UniProt P04049+P06400); experiment: IP-Western of tumor lysates, Rb:Raf-1; format: in vivo, nude mice; settings: both doses
# T1 construct: from tissue; host or cells: A549 xenograft tumors from nude mice
# Method: as §5
# At the end of the drug treatment, the A549 tumors were removed from the mice and fixed in formalin or snap frozen in liquid nitrogen for further histochemical analysis. The tumors were analyzed by immunohistochemistry staining with hematoxylin and eosin (H&E), TUNEL, Ki-67, phospho-Rb (807,811), and CD-31. […] Tumors were homogenized and lysates were prepared to assess the inhibition of Rb:Raf-1 interaction in vivo.
# [7] = test system: binding of Raf-1 to Mek1/2; experiment: IP-western, A-549 cells, Raf-1-Mek1/2; format: cell-based, human
# From the text: as §5
# cyclin D kinase activity = experiment: In vitro kinase assay, cyclin D; format: biochemical
# Method: as §4
# PANC1 cells = experiment: Soft agar assay, PANC1; format: cell-based
# Method: as §6, §7
# cyclin D = experiment: Western/IP-western, cyclin D level and association with Rb; format: cell-based, human; settings: IP-western
# From the text: as §5
# Raf-1 = target: T2, Raf-1 (Homo sapiens, UniProt P04049); experiment: In vitro kinase assay, Raf-1; format: biochemical
# T2 construct: purchased Upstate Signaling, Charlottesville, Va; (Raf-1); QED Bioscience, San Diego, Calif; (Rb)
# Method: as §4
# [8] = test system: Aspc1, PANC1, and CAPAN2 pancreatic cancer cells; experiment: BrdU incorporation, S-phase entry, pancreatic cancer cells; format: cell-based; settings: range over three pancreatic cell lines
# Method: as §1
# A549-sh6 tumors = experiment: A549-sh6 (Rb shRNA) xenograft in nude mice; format: in vivo; settings: 150 mpk orally
# Method: Animal Studies. Nude mice (Charles River, Wilminton, Mass., USA) were maintained in accordance with Institutional Animal Care and Use Committee (IAUCUC) procedures and guidelines. A549 cells were harvested and resuspended in PBS, and then injected s.c. into the right and left flanks (10×10^6 cells per flank) of 8-week old female nude mice as reported previously (Sun 99). When tumors reached about 100-200 mm^3, animals were dosed intraperitoneally i.p. or orally by gavage with 0.1 mL solution once daily. Control animals received a vehicle, whereas treated animals were given 3a or RRD-238a at the indicated doses. The tumor volumes were determined by measuring the length (l) and the width (w) and calculating the volume (V=lw^2/2) as described previously (Sun 99). Statistical significance between control and treated animals were evaluated using Student's t-test.
# Athymic nude mice were implanted with 1×10^7 A549 cells bilaterally and the tumors were allowed to reach 200 mm^3 in size before treatment began. […] Furthermore, to examine whether 3a could affect the growth of tumors lacking Rb in vivo, sh6 and sh8 (shRNA for Rb) cell lines were implanted into the flanks of nude mice. The mice were given 3a orally at 150 mpk and the control groups were administered the vehicle.
# [9] = test system: Human aortic endothelial cells (HAECs); experiment: Matrigel angiogenic tubule formation; format: cell-based; settings: 20 μM
# Method: Matrigel assays. […] A total of 100 μl of thawed Matrigel was added to 96-well tissue culture plates, followed by incubation at 37° C. for 60 minutes to allow polymerization. […] Capillary tube formation assessed by using a Leica DMIL phase contrast microscope.
# An experiment was performed to determine whether angiogenic tubule formation could be inhibited by the disclosed compounds.
# T1 sequence (P06400 whole entry): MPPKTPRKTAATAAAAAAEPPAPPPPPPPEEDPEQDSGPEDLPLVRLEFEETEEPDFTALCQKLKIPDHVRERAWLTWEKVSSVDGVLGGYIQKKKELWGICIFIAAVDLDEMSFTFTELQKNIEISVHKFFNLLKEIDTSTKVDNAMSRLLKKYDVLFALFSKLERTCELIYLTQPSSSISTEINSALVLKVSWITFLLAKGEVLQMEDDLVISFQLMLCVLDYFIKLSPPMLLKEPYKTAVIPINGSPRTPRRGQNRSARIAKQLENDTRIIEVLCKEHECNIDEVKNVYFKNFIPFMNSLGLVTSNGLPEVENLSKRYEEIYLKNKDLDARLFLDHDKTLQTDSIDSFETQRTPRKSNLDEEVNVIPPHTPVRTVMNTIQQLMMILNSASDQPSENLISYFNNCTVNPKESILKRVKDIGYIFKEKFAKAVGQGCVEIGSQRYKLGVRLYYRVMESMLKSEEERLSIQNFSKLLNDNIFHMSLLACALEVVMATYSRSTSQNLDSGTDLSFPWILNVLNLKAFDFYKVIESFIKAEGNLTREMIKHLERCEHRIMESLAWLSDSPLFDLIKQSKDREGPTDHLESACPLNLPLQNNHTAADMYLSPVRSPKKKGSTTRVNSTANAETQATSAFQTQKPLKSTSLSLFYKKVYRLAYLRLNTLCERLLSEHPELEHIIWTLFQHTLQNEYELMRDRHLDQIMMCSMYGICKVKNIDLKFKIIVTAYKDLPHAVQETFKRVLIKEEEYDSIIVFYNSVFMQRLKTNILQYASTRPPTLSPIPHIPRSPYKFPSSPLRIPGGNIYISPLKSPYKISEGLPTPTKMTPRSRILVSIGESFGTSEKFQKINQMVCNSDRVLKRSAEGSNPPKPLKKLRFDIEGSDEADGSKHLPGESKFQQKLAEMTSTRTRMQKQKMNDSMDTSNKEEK
# T1 sequence (P04049 whole entry): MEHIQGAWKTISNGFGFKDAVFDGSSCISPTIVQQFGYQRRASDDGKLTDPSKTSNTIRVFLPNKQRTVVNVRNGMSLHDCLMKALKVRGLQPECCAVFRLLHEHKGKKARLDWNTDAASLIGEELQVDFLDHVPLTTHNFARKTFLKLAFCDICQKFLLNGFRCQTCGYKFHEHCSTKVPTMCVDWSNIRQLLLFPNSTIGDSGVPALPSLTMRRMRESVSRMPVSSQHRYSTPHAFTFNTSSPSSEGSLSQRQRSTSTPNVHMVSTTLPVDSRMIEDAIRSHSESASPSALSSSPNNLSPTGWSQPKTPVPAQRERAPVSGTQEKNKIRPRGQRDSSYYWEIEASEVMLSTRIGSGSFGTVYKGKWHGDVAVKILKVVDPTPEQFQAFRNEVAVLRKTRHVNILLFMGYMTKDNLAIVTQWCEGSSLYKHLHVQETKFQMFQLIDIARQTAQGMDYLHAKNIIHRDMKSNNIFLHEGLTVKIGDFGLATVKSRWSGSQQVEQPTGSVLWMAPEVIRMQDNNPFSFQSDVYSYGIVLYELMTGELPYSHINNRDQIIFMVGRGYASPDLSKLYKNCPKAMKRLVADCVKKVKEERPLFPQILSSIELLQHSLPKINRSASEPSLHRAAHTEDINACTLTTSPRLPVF
# T2 sequence (P04049 whole entry): as above
compound,measurement,setting,value
Cl.N=C(N)SCc1ccc(Cl)cc1Cl [Compound 3a],"S-phase entry (BrdU), A549 sh8",[1],does not inhibit the proliferation; also recorded: no effect
same,H1650 tumor growth in words,H1650 tumors; 50 mpk i.p.,inhibited H1650 xenograft tumor growth; also recorded: inhibited the growth of these tumors significantly
same,"tumor size, H1650 xenograft","H1650 tumors; 50 mpk/day i.p., vehicle 2185±326 mm^3",557±76 mm3
same,"S-phase entry (BrdU), Saos-2",Saos-2 cells,little effect
same,"S-phase entry (BrdU), U2-OS",U2-OS cells,inhibited S-phase entry
same,"S-phase entry (BrdU), parental A549",A549 cells,arrests wild-type A549 cells; also recorded: very effective
same,"S-phase entry, U251MG",[2],inhibited S-phase entry
same,rescue of anti-proliferative activity by E2F1 over expression,[3],sufficient to overcome; also recorded: efficiently overcame the anti-proliferative activity
same,cyclin E kinase activity,cyclin E kinase activity,does not inhibit; also recorded: did not affect the kinase activities
same,Rb phosphorylation,[4],reduced Rb phosphorylation significantly; also recorded: marked reduction in Rb phosphorylation
same,"adherence-independent growth in soft agar, H1650",H1650 cells,significantly inhibited the growth
same,"S-phase entry (BrdU), A549 sh6",[5],does not inhibit the proliferation; also recorded: no effect
same,Rb:Raf-1 interaction in tumor lysates,[6],inhibit the Rb:Raf-1 interaction in tumor lysates
same,serum-mediated binding of Raf-1 to Mek1/2,[7],not affected
same,cyclin D kinase activity,cyclin D kinase activity,does not inhibit; also recorded: did not affect the kinase activities
same,"adherence-independent growth in soft agar, PANC1",PANC1 cells,significantly inhibited the growth
same,level of cyclin D and its association with Rb,cyclin D,tended to reduce the levels of cyclin D as well as its association with Rb; also recorded: reduced
same,Raf-1 kinase activity,Raf-1,does not inhibit; also recorded: did not affect the kinase activities
same,"inhibition of S-phase entry, Aspc1, PANC1, CAPAN2",[8],50-65%
same,"tumor growth, A549-sh6 tumors lacking Rb",A549-sh6 tumors,unable to inhibit tumor growth; also recorded: did not respond
same,angiogenic tubule formation in matrigel,[9],inhibit angiogenic tubule formation; also recorded: significantly inhibited the angiogenic tubule formation
